These results are taken from ChEMBL document CHEMBL5154687, “Intramolecular hydrogen bond interruption and scaffold hopping of TMC-5 led to 2-(4-alkoxy-3-cyanophenyl)pyrimidine-4/5-carboxylic acids and 6-(4-alkoxy-3-cyanophenyl)-1,2-dihydro-3H-pyrazolo[3,4-d]pyrimidin-3-ones as potent pyrimidine-based xanthine oxidase inhibitors” (Eur J Med Chem, 2022).

Calls of active or inactive are those of the source. No cut-off for these calls is given here.

One may read the IC50 as the concentration that gives 50% inhibition.

Assay [1] deals with Rattus norvegicus. As to the kind of experiment: Hypouricemic activity in overnight-fasted Sprague-Dawley rat model of Potassium oxonate-induced acute hyperuricemia assessed as decrease in serum uric acid at 10 mg/kg, po administered after potassium oxonate treatment and measured up to 5 hrs relative to control. The format is functional, organism-based.
For assay [2], the target named is T1, Xanthine dehydrogenase/oxidase (Homo sapiens, UniProt P47989).
T1 sequence (P47989 whole entry): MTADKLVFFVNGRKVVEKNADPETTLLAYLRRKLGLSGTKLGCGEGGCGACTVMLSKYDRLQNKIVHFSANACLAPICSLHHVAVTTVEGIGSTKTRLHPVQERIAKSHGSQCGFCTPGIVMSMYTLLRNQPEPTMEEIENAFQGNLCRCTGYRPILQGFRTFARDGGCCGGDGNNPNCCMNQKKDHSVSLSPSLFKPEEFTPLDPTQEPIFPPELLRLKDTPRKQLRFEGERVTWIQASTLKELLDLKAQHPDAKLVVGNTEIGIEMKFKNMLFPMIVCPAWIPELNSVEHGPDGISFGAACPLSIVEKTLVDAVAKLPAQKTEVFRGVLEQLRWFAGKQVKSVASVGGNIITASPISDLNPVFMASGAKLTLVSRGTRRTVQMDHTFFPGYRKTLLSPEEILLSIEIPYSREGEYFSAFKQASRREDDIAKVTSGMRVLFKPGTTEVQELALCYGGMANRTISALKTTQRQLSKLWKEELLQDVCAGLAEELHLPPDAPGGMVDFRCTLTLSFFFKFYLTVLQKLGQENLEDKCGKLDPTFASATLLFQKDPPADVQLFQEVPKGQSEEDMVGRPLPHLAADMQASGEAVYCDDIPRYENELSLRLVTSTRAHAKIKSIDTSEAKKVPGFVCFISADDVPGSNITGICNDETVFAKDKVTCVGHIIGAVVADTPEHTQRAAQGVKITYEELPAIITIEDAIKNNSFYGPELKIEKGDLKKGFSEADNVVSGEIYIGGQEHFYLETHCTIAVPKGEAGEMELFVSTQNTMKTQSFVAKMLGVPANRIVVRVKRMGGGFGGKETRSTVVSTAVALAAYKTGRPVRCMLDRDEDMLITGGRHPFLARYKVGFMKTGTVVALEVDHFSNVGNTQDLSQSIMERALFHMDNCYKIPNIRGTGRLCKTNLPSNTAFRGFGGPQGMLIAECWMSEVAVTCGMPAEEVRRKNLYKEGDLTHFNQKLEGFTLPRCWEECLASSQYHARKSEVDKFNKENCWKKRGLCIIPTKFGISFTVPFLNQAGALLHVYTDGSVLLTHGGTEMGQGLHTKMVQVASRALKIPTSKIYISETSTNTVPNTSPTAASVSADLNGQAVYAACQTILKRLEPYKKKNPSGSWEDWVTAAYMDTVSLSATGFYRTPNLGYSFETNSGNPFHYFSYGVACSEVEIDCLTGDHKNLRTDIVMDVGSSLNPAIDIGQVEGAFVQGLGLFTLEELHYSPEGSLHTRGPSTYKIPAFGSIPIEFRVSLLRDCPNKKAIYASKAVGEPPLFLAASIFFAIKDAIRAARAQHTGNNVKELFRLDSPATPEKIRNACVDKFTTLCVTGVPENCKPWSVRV
Description: Inhibition of xanthine oxidase (unknown origin) using xanthine as substrate preincubated for 15 mins followed by substrate addition by UV spectrophotometric analysis
In assay [3] the target is T1, Xanthine dehydrogenase/oxidase. As to the kind of experiment: Mixed-type inhibition of xanthine oxidase (unknown origin) assessed as Inhibitor dissociation constant using xanthine as substrate incubated for 15 mins followed by substrate addition by UV spectrophotometric analysis. The settings on record: read-out: Kis.

Regarding `CC(C)Oc1ccc(-c2ncc3c(=O)[nH][nH]c3n2)cc1C#N`, in assay [1], the outcome was Active.

For the compound `CC(C)Oc1ccc(-c2nccc(C(=O)O)n2)cc1C#N`, in assay [1], the result was Active.

In turn, `Cc1nc(-c2ccc(OCC(C)C)c(C#N)c2)sc1C(=O)O` [FEBUXOSTAT] returned an IC50 in assay [2] of 28 nM. Further, the Ki in assay [3] was determined as 0.9 nM.
